Results taken from patent US20260109707A1, “HETEROBIFUNCTIONAL COMPOUNDS AND METHODS OF TREATING DISEASE” (Halda Therapeutics OpCo. Inc., priority 2022, published 2026).
Like-named read-outs stand apart in the source and are kept apart here.

What was measured:
[1] = test system: T-Rex 293 cell line SC3 cells lacking increased expression of androgen receptor protein; assay: Cellular growth inhibition assay, T-Rex 293 SC3 cells without doxycycline (CellTiter-Glo, 72 hours); type: cell-based; conditions: T-Rex 293 cell line SC3 cells not exposed to doxycycline (lacking increased androgen receptor expression)
Method in brief: (§1)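 Doxycycline (10 ng/mL) was either included or omitted to toggle wild-type androgen receptor expression in SC3 cells, a T-Rex 293 clone, grown in stripped-serum, phenol red-free medium. After 72 hours with compound, viable cells were quantified by CellTiter-Glo 2.0.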

VCaP cells = assay: Cellular growth inhibition assay for VCaP cells (CellTiter-Glo, 72 hours); type: cell-based, human
Method in brief: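 Luminescent viability signal after 72 h of compound exposure gave GI50 values by four-parameter nonlinear regression. Compounds were added in 0.5% DMSO to cells plated 24 h earlier at 5000/well in DMEM containing 10% FBS.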

[2] = test system: T-Rex 293 cell line SC3 cells having increased expression of androgen receptor protein due to exposure to doxycycline; assay: Cellular growth inhibition assay, T-Rex 293 SC3 cells with doxycycline (CellTiter-Glo, 72 hours); type: cell-based; conditions: T-Rex 293 SC3 cells with increased androgen receptor expression due to doxycycline (10 ng/mL)
Method in brief: as §1

GI50 (VCaP cells; Homo sapiens, VCaP, 72 h) [nM]	GI50 (VCaP cells) [nM]	SMILES	GI50 ([1]; 72 h) [nM]	GI50 ([2]; 72 h) [nM]	GI50 [1] [nM]	GI50 [2] [nM]
< 500	–	Cc1sc2c(c1C)C(c1ccc(N3C[C@@H]4CN(c5ccc(C(=O)N[C@H]6CC[C@H](Oc7ccc(C#N)c(Cl)c7)CC6)nn5)C[C@H]4C3)cc1)=NC1(CC1)c1nnc(C)n1-2 [I-664]	< 500	< 500	–	–
< 500	–	Cc1sc2c(c1C)C(c1ccc(CC3CCC4(CCCN(c5ccc(C(=O)N[C@H]6CC[C@H](Oc7ccc(C#N)c(Cl)c7)CC6)nn5)C4)C3)nc1)=N[C@@H](C)c1nnc(C)n1-2 (stereo partly drawn) [I-665]	> 3000	< 500	–	–
–	< 500	Cc1sc2c(c1C)C(c1ccc(CC3CCC4(CCCN(c5ccc(C(=O)N[C@H]6CC[C@H](Oc7ccc(C#N)c(Cl)c7)CC6)nn5)C4)C3)nc1)=N[C@@H](C)c1nnc(C)n1-2 (stereo partly drawn) [I-666]	–	–	> 3000	< 500
–	< 500	Cc1sc2c(c1C)C(c1ccc(OCC3CCC4(C3)CN(c3ccc(C(=O)N[C@H]5CC[C@H](Oc6ccc(C#N)c(Cl)c6)CC5)nn3)CCO4)cc1)=N[C@@H](C)c1nnc(C)n1-2 (stereo partly drawn) [I-667]	–	< 500	< 500	–
–	< 500	Cc1sc2c(c1C)C(c1ccc(OCC3CCC4(C3)CN(c3ccc(C(=O)N[C@H]5CC[C@H](Oc6ccc(C#N)c(Cl)c6)CC5)nn3)CCO4)cc1)=N[C@@H](C)c1nnc(C)n1-2 (stereo partly drawn) [I-668]	–	–	< 500	< 500
< 500	–	Cc1sc2c(c1C)C(c1ccc(CCCC3CCCN(c4ccc(C(=O)N[C@H]5CC[C@H](Oc6ccc(C#N)c(Cl)c6)CC5)nn4)CC3)cc1)=N[C@@H](C)c1nnc(C)n1-2 (stereo partly drawn) [I-669]	–	< 500	> 3000	–
–	< 500	Cc1sc2c(c1C)C(c1ccc(CCCC3CCCN(c4ccc(C(=O)N[C@H]5CC[C@H](Oc6ccc(C#N)c(Cl)c6)CC5)nn4)CC3)cc1)=N[C@@H](C)c1nnc(C)n1-2 (stereo partly drawn) [I-670]	–	–	< 500	< 500
< 500	–	Cc1sc2c(c1C)C(c1ccc(CCCC3CCCN(c4ccc(C(=O)N[C@H]5CC[C@H](Oc6ccc(C#N)c(Cl)c6)CC5)nn4)CC3)nc1)=N[C@@H](C)c1nnc(C)n1-2 (stereo partly drawn) [I-671]	< 500	< 500	–	–
–	< 500	Cc1sc2c(c1C)C(c1ccc(CCCC3CCCN(c4ccc(C(=O)N[C@H]5CC[C@H](Oc6ccc(C#N)c(Cl)c6)CC5)nn4)CC3)nc1)=N[C@@H](C)c1nnc(C)n1-2 (stereo partly drawn) [I-672]	–	–	< 500	< 500
< 500	–	Cc1sc2c(c1C)C(c1ccc(C3CCC4(CCCN(c5ccc(C(=O)N[C@H]6CC[C@H](Oc7ccc(C#N)c(Cl)c7)CC6)nn5)C4)CC3)cc1)=N[C@@H](C)c1nnc(C)n1-2 (stereo partly drawn) [I-673]	> 3000	< 500	–	–
–	< 500	Cc1sc2c(c1C)C(c1ccc(C3CCC4(CCCN(c5ccc(C(=O)N[C@H]6CC[C@H](Oc7ccc(C#N)c(Cl)c7)CC6)nn5)C4)CC3)cc1)=N[C@@H](C)c1nnc(C)n1-2 (stereo partly drawn) [I-674]	–	–	> 3000	< 500
< 500	–	Cc1sc2c(c1C)C(c1ccc(N3C[C@@]4(F)CN(c5ccc(C(=O)N[C@H]6CC[C@H](Oc7ccc(C#N)c(Cl)c7)CC6)nn5)C[C@@]4(F)C3)cc1)=N[C@@H](C)c1nnc(C)n1-2 [I-675]	< 500	< 500	–	–
< 500	–	Cc1sc2c(c1C)C(c1ccc(N3C[C@@H]4CN(c5ccc(C(=O)N[C@H]6CC[C@H](Oc7ccc(C#N)c(Cl)c7)CC6)nn5)C[C@@H]4C3)cc1F)=N[C@@H](C)c1nnc(C)n1-2 [I-676]	< 500	< 500	–	–
> 3000	–	Cc1sc2c(c1C)C(c1ccc(C/C=C/C3CN(c4ccc(C(=O)N[C@H]5CC[C@H](Oc6ccc(C#N)c(Cl)c6)CC5)nn4)C3)cc1)=N[C@@H](Cc1ncco1)c1nnc(C)n1-2 [I-678]	> 3000	< 500	–	–
< 500	–	Cc1sc2c(c1C)C(c1cccc(OC3CCN(c4ccc(C(=O)N[C@H]5CC[C@H](Oc6ccc(C#N)c(Cl)c6)CC5)nn4)CC3)c1)=N[C@@H](C)c1nnc(C)n1-2 [I-680]	> 3000	< 500	–	–
< 500	–	Cc1sc2c(c1C)C(c1cccc(OCC3CCN(c4ccc(C(=O)N[C@H]5CC[C@H](Oc6ccc(C#N)c(Cl)c6)CC5)nn4)CC3)c1)=N[C@@H](C)c1nnc(C)n1-2 [I-681]	> 3000	> 3000	–	–
500 to 1500	–	Cc1sc2c(c1C)C(c1cccc(N3CCC4(CCN(c5ccc(C(=O)N[C@H]6CC[C@H](Oc7ccc(C#N)c(Cl)c7)CC6)nn5)C4)C3)c1)=N[C@@H](C)c1nnc(C)n1-2 (stereo partly drawn) [I-682]	–	< 500	500 to 1500	–
> 3000	–	Cc1sc2c(c1C)C(c1cccc(N3CC4(CCN(c5ccc(C(=O)N[C@H]6CC[C@H](Oc7ccc(C#N)c(Cl)c7)CC6)nn5)CC4)C3)c1)=N[C@@H](C)c1nnc(C)n1-2 [I-683]	> 3000	> 3000	–	–
500 to 1500	–	Cc1sc2c(c1C)C(c1cccc(CC3CC4(CCN(c5ccc(C(=O)N[C@H]6CC[C@H](Oc7ccc(C#N)c(Cl)c7)CC6)nn5)CC4)C3)c1)=N[C@@H](C)c1nnc(C)n1-2 [I-684]	> 3000	< 500	–	–
< 500	–	Cc1sc2c(c1C)C(c1cccc(N3CCC4(CC3)CCN(c3ccc(C(=O)N[C@H]5CC[C@H](Oc6ccc(C#N)c(Cl)c6)CC5)nn3)C4)c1)=N[C@@H](C)c1nnc(C)n1-2 [I-685]	500 to 1500	< 500	–	–
< 500	–	Cc1sc2c(c1C)C(c1cccc(OC3CC4(CCCN(c5ccc(C(=O)N[C@H]6CC[C@H](Oc7ccc(C#N)c(Cl)c7)CC6)nn5)C4)C3)c1)=N[C@@H](C)c1nnc(C)n1-2 (stereo partly drawn) [I-686]	–	< 500	> 3000	–
< 500	–	Cc1sc2c(c1C)C(c1cccc(N3CCC4(CCCN(c5ccc(C(=O)N[C@H]6CC[C@H](Oc7ccc(C#N)c(Cl)c7)CC6)nn5)C4)CC3)c1)=N[C@@H](C)c1nnc(C)n1-2 [I-687]	> 3000	< 500	–	–
< 500	–	Cc1sc2c(c1C)C(c1cccc(CN3CCC4(CC3)CCN(c3ccc(C(=O)N[C@H]5CC[C@H](Oc6ccc(C#N)c(Cl)c6)CC5)nn3)C4)c1)=N[C@@H](C)c1nnc(C)n1-2 [I-688]	500 to 1500	< 500	–	–
> 3000	–	Cc1sc2c(c1C)C(c1ccccc1OCCC1CCN(c3ccc(C(=O)N[C@H]4CC[C@H](Oc5ccc(C#N)c(Cl)c5)CC4)nn3)CC1)=N[C@@H](C)c1nnc(C)n1-2 [I-689]	> 3000	> 3000	–	–
< 500	–	Cc1sc2c(c1C)C(c1ccccc1CC1CC3(CCN(c4ccc(C(=O)NC5CCC(Oc6ccc(C#N)c(Cl)c6)CC5)nn4)CC3)C1)=N[C@@H](C)c1nnc(C)n1-2 (stereo partly drawn) [I-690]	> 3000	> 3000	–	–
< 500	–	Cc1sc2c(c1C)C(c1ccc(C3CCC4(CCN(c5ccc(C(=O)N[C@H]6CC[C@H](Oc7ccc(C#N)c(Cl)c7)CC6)nn5)CC4)C3)cn1)=NC1(CC1)c1nnc(C)n1-2 (stereo partly drawn) [I-691]	> 3000	< 500	–	–
< 500	–	COC[C@@H]1N=C(c2ccc(CC3CC4(CCN(c5ccc(C(=O)N[C@H]6CC[C@H](Oc7ccc(C#N)c(Cl)c7)CC6)nn5)CC4)C3)cc2)c2c(sc(C)c2C)-n2c(C)nnc21 [I-692]	< 500	< 500	–	–
> 3000	–	Cc1sc2c(c1C)C(c1ccc(C3CCC4(CCCN(c5ccc(C(=O)N[C@H]6CC[C@H](Oc7ccc(C#N)c(Cl)c7)CC6)nn5)C4)CC3)cc1)=NC(C(F)(F)F)c1nnc(C)n1-2 (stereo partly drawn) [I-694]	> 3000	> 3000	–	–
